From publication PMC5775280, “Functional Characterization and Signaling Systems of Corazonin and Red Pigment Concentrating Hormone in the Green Shore Crab, Carcinus maenas” (Frontiers in Neuroscience, 2018)
Peptide text beside a SMILES is read from it.

What was measured:
[1] = biological target: T1, C. maenas RPCHR (red pigment concentrating hormone receptor) (Carcinus maenas, UniProt A0A2L0WQF2); test: Aequorin luminescence Ca2+ mobilization in CHO-K1-Aeq cells transiently expressing RPCHR; type: cell-based; details: for EC50: CHO-K1-Aeq cells (without Gα16) transiently expressing RPCHR, luminescence response normalized to total Ca2+ response, dose response curves, means of n = 4; for binding to / activation of RPCHR: micromolar concentrations
T1 sequence (A0A2L0WQF2 1-529): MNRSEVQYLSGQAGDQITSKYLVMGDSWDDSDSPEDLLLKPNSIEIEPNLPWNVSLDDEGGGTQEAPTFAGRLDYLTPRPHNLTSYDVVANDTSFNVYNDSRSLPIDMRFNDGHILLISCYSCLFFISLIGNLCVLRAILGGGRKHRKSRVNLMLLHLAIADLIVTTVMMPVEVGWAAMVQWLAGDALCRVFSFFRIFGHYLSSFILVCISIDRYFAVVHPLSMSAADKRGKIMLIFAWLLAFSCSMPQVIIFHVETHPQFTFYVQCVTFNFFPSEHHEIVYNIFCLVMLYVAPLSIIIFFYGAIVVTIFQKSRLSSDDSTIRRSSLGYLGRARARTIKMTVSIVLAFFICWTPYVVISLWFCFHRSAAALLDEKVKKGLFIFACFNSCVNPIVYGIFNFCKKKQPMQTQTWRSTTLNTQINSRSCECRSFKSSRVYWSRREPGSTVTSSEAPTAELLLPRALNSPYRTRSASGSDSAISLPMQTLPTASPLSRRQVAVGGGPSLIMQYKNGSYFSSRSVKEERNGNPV
Protocol: (§1) Chinese hamster ovary (CHO-K1) cells containing stably expressed apoaequorin (Perkin Elmer, Boston, MA) and either Gα16 or Gq subunit (control cells) were cultured in Dulbecco's Modified Eagle Medium (DMEM) F-12 Nutrient Mixture GlutaMax (Gibco®) supplemented with 10% fetal bovine serum (Gibco®). Cells were maintained in vented T75 flasks at 37°C in 5% CO2.
(§2) Cells grown in a monolayer to approximately 60% confluency in T75 flasks were transfected with pcDNA3.1 constructs using FugeneHD (Promega) according to the manufacturer's recommendations. Briefly, transfection medium was prepared by combining 800 μl Opti-MEM® (Gibco) with 10 μg vector and 30 μl Fugene HD in a 2 ml polystyrene tube and incubated for 10 min at room temperature. The transfection reagent was added to 5 ml of fresh culture media and the cells incubated overnight at 37°C in 5% CO2. After 24 h, an additional 10 ml of culture media were added to the flasks and the cells returned to 37°C at 5% CO2 for a further overnight incubation.
(§3) On the day of the assay, cells were detached from the culture flask by incubating for 12 min in 5 ml 0.2% EDTA in PBS. The cells were washed with 10 ml DMEM clear DMEM/F-12 containing L-glutamine, 15 mM HEPES and moved to 50 ml centrifuge tubes. Cells were centrifuged for 5 min at 260 g and resuspended to a concentration of 5 × 10^6 cells ml^−1 in 0.2 μm filtered BSA medium (DMEM/F-12 containing L-glutamine, 15 mM HEPES + 0.1% BSA). Coelenterazine h (Invitrogen, Paisley, UK) was added to a concentration of 5 μM and the cells incubated for 4 h in the dark at room temperature whilst gently rocking. The cells were diluted 10-fold and incubated for a further 60 min before use in the assay. Synthetic peptides (GeneCust, Dudelange, Luxembourg) were reconstituted in 30% acetonitrile, dried in small aliquots by vacuum centrifugation and subsequently redissolved in BSA medium. Fifty microliter aliquots were then dispensed into quadruplicate wells of a white 96-well plate (OptiPlate, PerkinElmer). Cell suspensions were gently stirred and injected in 50 μl aliquots into each well using a Mithras LB 940 microplate reader (Berthold Technologies, Bad-Wildbad, Germany) and light emission (Ca^2+ response) recorded for 30 s. Cells were then lysed by injection of 0.3% Triton-X in BSA medium and light emission recorded for a further 10 s to measure total Ca^2+ response. BSA medium was used for blank measurements (6 replicate wells per plate) and mock transfection with empty vectors carried out for negative controls. Data was analyzed using MikroWin v5.18 (Mikrotek Laborsysteme GmbH) and SigmaPlot v.13 (Systat Software, Inc.). Receptor response was normalized against total Ca^2+ response.

[2] = tested on: putative adipokinetic hormone/corazonin-related peptide receptor (ACPR); test: Receptor assay with putative ACPR; type: cell-based, Carcinus maenas
Protocol: as §1
Cells grown in a monolayer to approximately 60% confluency in T75 flasks were transfected with pcDNA3.1 constructs using FugeneHD (Promega) according to the manufacturer's recommendations. Briefly, transfection medium was prepared by combining 800 μl Opti-MEM® (Gibco) with 10 μg vector and 30 μl Fugene HD in a 2 ml polystyrene tube and incubated for 10 min at room temperature. […]
On the day of the assay, cells were detached from the culture flask by incubating for 12 min in 5 ml 0.2% EDTA in PBS. […] Cell suspensions were gently stirred and injected in 50 μl aliquots into each well using a Mithras LB 940 microplate reader (Berthold Technologies, Bad-Wildbad, Germany) and light emission (Ca^2+ response) recorded for 30 s. Cells were then lysed by injection of 0.3% Triton-X in BSA medium and light emission recorded for a further 10 s to measure total Ca^2+ response. […] Data was analyzed using MikroWin v5.18 (Mikrotek Laborsysteme GmbH) and SigmaPlot v.13 (Systat Software, Inc.). […]

[3] = tested on: red and black epidermal chromatophores, dactyl of the 5th walking leg; test: Chromatophore pigment migration bioassay in vivo; set-up: species or system Carcinus maenas; details: for pigment migration (concentration) in red and black epidermal chromatophores: injection after 40 min dispersion with 5 pmol PDH, 0.1–100 pmol/crab for RPCH or AKH, 100 pmol/crab for CRZ or ACP, scored 5 and 20 min after injection
Protocol: Pigmentary effector activity of […], Locusta migratoria AKH-I, and ACP were measured in vivo, using small (15-20 mm carapace width) C. maenas. Crabs were firstly adapted to a white background, light intensity 300 lx for 1 h. Pigment dispersion of red and black chromatophores in the […] of the 5th walking leg were microscopically observed and indices of dispersion scored according to Hogben and Slome ([1931]). Red and black chromatophores were firstly fully dispersed by injection of 5 pmol C. maenas pigment dispersing hormone ([…]) in 10 μl saline into the hypobranchial sinus, using hand-drawn glass microcapillaries. Chromatophore dispersion indices were scored at 0, 20, 40 min. Peptides were then injected and chromatophores subsequently scored after 5 and 20 min.

[4] = Hemolymph triglyceride levels after peptide injection; type: in vivo, Carcinus maenas
Protocol: (§4) Adipokinetic and glucose mobilizing activity of […] and ACP were performed by measurement of triglycerides in hemolymph ([…] et al., [2014]) and glucose (Chung and Webster, [1996]). Hemolymph samples (ca. 100 μl) were taken from crabs injected with each peptide at 0 and 90 min, and subsequently assayed.

[5] = Hemolymph glucose levels after peptide injection; type: in vivo, Carcinus maenas; details: injection 100, 10 pmol per crab
Protocol: as §4

semi-isolated heart = test: Cardioactivity on semi-isolated heart preparations; set-up: species or system Carcinus maenas; details: superfusion
Protocol: Cardioactivity of […], and ACP was performed on semi-isolated heart preparations of C. maenas. Crabs (ca. 65 mm carapace width) were ice-anesthetized and rapidly decerebrated before removing all limbs and the dorsal carapace to expose the heart and pericardial cavity. The heart was connected to a force transducer (MLT0210/A) via a micro fishing hook (size 28) and fine nylon (0.08 mm) monofilament. Connection to a PC with Chart 4.0 was via a Bridge Pod (ML301) and Powerlab 4/20 (AD Instruments Pty Ltd, Castle Hill, NSW, Australia). Transducer gain was set at maximum sensitivity (200 μV). Heart preparations were initially perfused with C. maenas physiological saline (Saver et al., [1999]) at room temperature (20°C). Once a stable heart output was achieved, hearts were firstly perfused with 1 ml saline, followed by increasing concentrations of peptides, applied in 1 ml. Crustacean cardioactive peptide (CCAP) (Bachem, Bubendorf, Switzerland), or proctolin (Sigma, Poole, UK) were positive controls (10^-11-10^-7 M). Test peptides ([…]) were perfused at 10^-8-10^-6 M for approximately 2 min at each concentration.

[6] = Hemolymph triglyceride levels after peptide injection; type: in vivo, Carcinus maenas; details: lipid mobilization bioassay
[7] = biological target: T2, C. maenas CRZR (corazonin receptor) (Carcinus maenas, UniProt A0A2L0WQE5); test: Aequorin luminescence Ca2+ mobilization in CHO-K1-Aeq cells transiently expressing CRZR; type: cell-based; details: for EC50: CHO-K1-Aeq cells (without Gα16) transiently expressing CRZR, luminescence response normalized to total Ca2+ response, dose response curves, means of n = 4; for bioluminescent response at CRZR compared with the homologous crab/insect ligand (Arg^7-CRZ): several independent experiments
T2 sequence (A0A2L0WQE5 1-617): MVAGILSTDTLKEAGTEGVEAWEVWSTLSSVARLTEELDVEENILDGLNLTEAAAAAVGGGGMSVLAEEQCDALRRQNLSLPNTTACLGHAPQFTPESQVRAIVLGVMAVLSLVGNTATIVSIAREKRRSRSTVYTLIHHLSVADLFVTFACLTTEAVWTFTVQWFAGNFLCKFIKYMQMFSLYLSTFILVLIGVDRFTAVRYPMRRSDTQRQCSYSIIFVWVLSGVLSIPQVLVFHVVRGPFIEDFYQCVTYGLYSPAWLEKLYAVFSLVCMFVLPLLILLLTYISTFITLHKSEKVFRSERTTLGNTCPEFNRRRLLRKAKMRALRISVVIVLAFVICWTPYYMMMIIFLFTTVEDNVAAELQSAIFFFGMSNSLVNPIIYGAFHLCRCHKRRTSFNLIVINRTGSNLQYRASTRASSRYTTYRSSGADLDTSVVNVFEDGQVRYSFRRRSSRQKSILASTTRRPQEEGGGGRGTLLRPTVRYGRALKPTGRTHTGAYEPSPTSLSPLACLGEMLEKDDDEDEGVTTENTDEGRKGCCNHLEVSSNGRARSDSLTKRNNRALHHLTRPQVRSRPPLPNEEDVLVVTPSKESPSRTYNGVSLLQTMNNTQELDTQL
Protocol: as §1, §2, §3

## CC[C@H](C)[C@H](NC(=O)[C@@H]1CCC(=O)N1)C(=O)N[C@H](C(=O)N[C@@H](Cc1ccccc1)C(=O)N[C@@H](CO)C(=O)N[C@@H](CCCNC(=N)N)C(=O)N[C@@H](CO)C(=O)N[C@@H](Cc1c[nH]c2ccccc12)C(=O)N[C@H](C(=O)N1CCC[C@H]1C(=O)N[C@@H](CCC(N)=O)C(N)=O)C(C)C)[C@@H](C)O [ACP] (HELM PEPTIDE1{[Glp].I.T.F.S.R.S.W.V.P.Q.[am]}$$$$V2.0)
[1]
  EC50: > 20000 nM
  binding to / activation of RPCHR: vanishingly small dose-dependent binding
[2]
  binding to putative ACPR: did not bind
[3]
  pigment migration (concentration) in red and black epidermal chromatophores: completely ineffective
[4]; injection 100 pmol per crab, 0 min, mean ± 1 SEM, n = 6, SEM
  hemolymph triglyceride levels, 0 min: 1.47 ± 0.44 µg/µL
[4]; injection 100 pmol per crab, 90 min, mean ± 1 SEM, n = 6, no significant change over 90 min, SEM
  hemolymph triglyceride levels, 90 min: 1.28 ± 0.34 µg/µL
[4]; injection 100, 10 pmol per crab
  activity on circulating triglycerides: neither CRZ nor ACP exhibited any biological activity
[5]
  activity on circulating glucose: neither CRZ nor ACP exhibited any biological activity
semi-isolated heart; concentrations up to 10^−6 M, 20°C
  cardioacceleratory effect on semi-isolated hearts: completely without cardioacceleratory effect
[6]
  effect on hemolymph diacylglycerol levels: completely without effect

## C[C@@H](O)[C@H](NC(=O)[C@H](Cc1c[nH]c2ccccc12)NC(=O)CNC(=O)[C@H](Cc1c[nH]cn1)NC(=O)[C@H](CO)NC(=O)[C@H](Cc1ccc(O)cc1)NC(=O)[C@H](CCC(N)=O)NC(=O)[C@H](Cc1ccccc1)NC(=O)[C@@H](NC(=O)[C@@H]1CCC(=O)N1)[C@@H](C)O)C(=O)N[C@@H](CC(N)=O)C(N)=O [His^7-CRZ] (HELM PEPTIDE1{[Glp].T.F.Q.Y.S.H.G.W.T.N.[am]}$$$$V2.0)
[7]
  EC50: 0.3 nM
  bioluminescent response at CRZR compared with the homologous crab/insect ligand (Arg^7-CRZ): somewhat higher bioluminescent response at lower doses

## CC(C)C[C@H](NC(=O)[C@@H]1CCC(=O)N1)C(=O)N[C@@H](CC(N)=O)C(=O)N[C@@H](Cc1ccccc1)C(=O)N[C@H](C(=O)N1CCC[C@H]1C(=O)N[C@@H](CC(N)=O)C(=O)N[C@@H](Cc1c[nH]c2ccccc12)C(=O)NCC(=O)N[C@H](C(N)=O)[C@@H](C)O)[C@@H](C)O [Lom AKH-1, reference compound] (HELM PEPTIDE1{[Glp].L.N.F.T.P.N.W.G.T.[am]}$$$$V2.0)
[1]
  EC50: 0.07 nM
[3]
  pigment migration (concentration) in red and black epidermal chromatophores: slightly less effective compared to RPCH

## C[C@@H](O)[C@H](NC(=O)[C@H](Cc1c[nH]c2ccccc12)NC(=O)CNC(=O)[C@H](Cc1c[nH]cn1)NC(=O)[C@H](CO)NC(=O)[C@H](Cc1ccc(O)cc1)NC(=O)[C@@H](NC(=O)[C@H](Cc1ccccc1)NC(=O)[C@@H](NC(=O)[C@@H]1CCC(=O)N1)[C@@H](C)O)[C@@H](C)O)C(=O)N[C@@H](CC(N)=O)C(N)=O [Thr^4, His^7-CRZ] (HELM PEPTIDE1{[Glp].T.F.T.Y.S.H.G.W.T.N.[am]}$$$$V2.0)
[7]
  EC50: 0.14 nM
  bioluminescent response at CRZR compared with the homologous crab/insect ligand (Arg^7-CRZ): somewhat higher bioluminescent response at lower doses

## GnRH: evolutionarily-related peptide (mammalian) GnRH, gonadotropin releasing hormone [reference compound]
[7]; even at micromolar concentrations
  activation of CRZR: Neither receptor was activated
[1]
  binding to / activation of RPCHR: Neither receptor was activated

## NSELINSILGLPKVMNDA-NH2 [PDH, C. maenas pigment dispersing hormone, reference compound]
[3]; injection of 5 pmol, over 40 min
  pigment dispersion of chromatophores: expansion of both red and black chromatophores

## proctolin [reference compound]
semi-isolated heart; positive control
  kind of response on semi-isolated hearts: very pronounced inotropic response
semi-isolated heart; positive controls, CCAP: most sensitive preparations
  threshold response on semi-isolated hearts: about 10^−9 M
